One experiment concerns the target human GPR120 (Homo sapiens (Human), UniProt Q5NUL3). The experiment can be described thus: GPR120 pERK AlphaScreen SureFire Assay (human GPR120 pERK assay). The format is cell-based. Conditions: CHOA12 or CHO-K1 cells stably transfected with the short form of human GPR120 receptor; phosphorylated ERK; read-out: EC50 values measured in the human GPR120 pERK assay. The method in brief:
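CHO cells (CHOA12 or CHO-K1) stably expressing short-form human GPR120 were serum-starved for 2 h, then exposed to compound for 7 min at 37 °C over an 11-point range of 33.33 μM–0.56 nM final. ERK phosphorylation was read by AlphaScreen SureFire and normalised to DMSO and to 50 μM linolenic acid. EC50 was derived from a 4-parameter logistic fit.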
In general terms: Alpha assays give light when donor and acceptor beads are brought close together.

Another experiment relates to C57BL/6 mice. The experiment can be described thus: Acute Oral Glucose Tolerance Test. The experiment is classed as in vivo. Conditions: oral glucose tolerance test in mice at dose of 30 mg/kg; AUC t=0-120 min compared to vehicle. As to the method:
In Vivo GPR120 Assays 1) Acute Oral Glucose Tolerance Test
C57BL/6 mice were housed individually and fed a standard rodent chow diet. At approximately 11 weeks age, after a 5 h fast, these mice were orally treated with vehicle or test compounds 60 min before a glucose challenge (2 g/kg). Blood glucose levels were determined from tail bleeds taken at −60, 0, 15, 30, 60 and 120 min after the glucose challenge. The blood glucose excursion profile from t=0-120 min was used to calculate an area under the curve (AUC) for compound treatment. This AUC for compound treatment is compared to vehicle treatment.

The text below walks through data of patent publication US9518000B2, “Bicyclo [2.2.1] acid GPR120 modulators” (BRISTOL-MYERS SQUIBB COMPANY, priority 2013, dated 2016).

The EC50 is the concentration giving half of the maximal effect.

Chain of human GPR120 (Q5NUL3 whole entry): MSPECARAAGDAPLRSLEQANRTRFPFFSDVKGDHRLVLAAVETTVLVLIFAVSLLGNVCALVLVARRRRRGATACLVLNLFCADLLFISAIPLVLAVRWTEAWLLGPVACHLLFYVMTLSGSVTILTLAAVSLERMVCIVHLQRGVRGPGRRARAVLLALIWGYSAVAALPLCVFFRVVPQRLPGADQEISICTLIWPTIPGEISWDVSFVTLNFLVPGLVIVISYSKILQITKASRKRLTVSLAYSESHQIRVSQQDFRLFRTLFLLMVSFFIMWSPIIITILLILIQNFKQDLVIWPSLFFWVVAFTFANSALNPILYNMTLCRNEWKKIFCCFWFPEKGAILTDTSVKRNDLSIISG

On to `O=C(O)[C@H]1C[C@@H]1CC12CCC(OCc3cc(F)cc(Oc4ccccc4)c3)(CC1)C2` (single isomer, unassigned) [Example 92], for which, at human GPR120, the EC50 came to 600 nM. Further, in the experiment with C57BL/6 mice, the “reduced glucose AUC levels” value was determined as 25%. For `O=C(O)COCC12CCC(OCc3cc(F)cc(Oc4ccccc4)c3)(CC1)C2` [Example 73, 2-((4-(3-fluoro-5-phenoxybenzyloxy)bicyclo [2.2.1]heptan-1-yl)methoxy) acetic acid], the EC50 on human GPR120 is 1620 nM. Further, the “reduced glucose AUC levels” value in the experiment with C57BL/6 mice stood at 21%. Turning to `O=C(O)/C=C/CC12CCC(OCc3cccc(Oc4ccccc4)c3)(CC1)C2` [Example 94, (E)-4-(4-((3-Phenoxybenzyl)oxy)bicyclo[2.2.1]heptan-1-yl)but-2-enoic acid], the EC50 at human GPR120 was 630 nM. Same read-out and setting: the result for `O=C(O)C1CC1CC12CCC(OCc3cccc(Oc4ccccc4)c3)(CC1)C2` (stereo not drawn) [Example 95, 2-((4-((3-Phenoxybenzyl)oxy)bicyclo[2.2.1]heptan-1-yl)methyl)cyclopropanecarboxylic acid] reads 510 nM; that for `NC(=O)CNC(=O)CCCC12CCC(OCc3cc(F)cc(Oc4ccccc4)c3)(CC1)C2` [Example 98, N-(2-Amino-2-oxoethyl)-4-(4-((3-fluoro-5-phenoxybenzyl)oxy)bicyclo[2.2.1]heptan-1-yl)butanamide], 2680 nM.

Consider `OCCC12CCC(OCc3cc(F)cc(Oc4ccccc4)c3)(CC1)C2` [Example 99, 2-(4-((3-Fluoro-5-phenoxybenzyl)oxy)bicyclo[2.2.1]heptan-1-yl)ethanol], for which, on human GPR120, the EC50 is 6360 nM.

Consider `O=C(O)COCCC12CCC(OCc3cc(F)cc(Oc4ccccc4)c3)(CC1)C2` [Example 100, 2-(2-(4-((3-Fluoro-5-phenoxybenzyl)oxy)bicyclo[2.2.1]heptan-1-yl)ethoxy)acetic acid], for which the half-maximal effective concentration (EC50) on human GPR120 worked out at 570 nM.
